Measurements taken from paper PMC4318582, “Chemotherapy of Second Stage Human African Trypanosomiasis: Comparison between the Parenteral Diamidine DB829 and Its Oral Prodrug DB868 in Vervet Monkeys” (PLoS Neglected Tropical Diseases, 2015).
Values joined by “and” are separate entries in the source; they are usually repeats but may differ in a detail not shown here. Equal values may be shown once. Read-outs that look alike come from different tables or passages of the source.

Experiments:
Type in all cases: in vivo, vervet monkey
[1] = Plasma pharmacokinetics in infected vervet monkeys (HPLC-MS/MS)
Text: (§1) Parasitaemia post-infection was monitored daily, using ear-prick capillary blood, through the completion of DB868 and DB829 treatment. Following the last drug dose (LDD), blood and CSF samples were examined for trypanosomes at 1, 4, 7, and 14 days to determine the end of treatment (EoT) response; monkeys which were positive for trypanosomes in either blood or CSF at the end of this 14-day period were classified as treatment failures/not cured while those that were free of trypanosomes were classified as provisionally cured. After the 14-day EoT evaluations, parasitaemia examinations were continued twice weekly to ≥ 300 days post-LDD as described previously. Additionally, physical examinations and haematological assessments were carried out once weekly up to 28 days post-LDD, once every two weeks between 28 and 100 days post-LDD, and monthly thereafter until the end of the study as described previously. At 300 days post-LDD, monkeys were considered cured if they remained normal clinically and parasite-free in the blood and CSF. Pharmacokinetic outcomes were monitored for a minimum of 60 days post-LDD as described previously. To facilitate the collection of blood and CSF for these assessments, the monkeys were anaesthetised with an IM injection of ketamine HCl (10–15 mg/kg) and diazepam (0.5 mg/kg). Monkeys that relapsed, characterized by trypanosome recrudescence in the blood or CSF, were rescue-treated with melarsoprol. Melarsoprol (Mel B), supplied by the World Health Organization as a 3.6% (w/v) solution in propylene glycol, was administered intravenously at 3.6 mg/kg/day for 4 consecutive days.
(§2) Plasma samples were processed for quantification of DB868 and DB829 by high performance liquid chromatography-tandem mass spectrometry (HPLC-MS/MS) as described previously. CSF samples were processed in a manner similar to that of plasma samples.
Clinical and haematological data were analysed using Statview for Windows Version 5.0.1 (1995–1998; SAS Institute Inc., Cary, NC, USA). Repeated measures ANOVA, with Fisher’s PLSD post hoc test, was used to test the effect of trypanosome infection on haematologic parameters in comparison with respective baseline values (α = 0.05). In addition, the effects of IM DB829 and oral DB868 on these haematologic parameters in monkeys with confirmed second stage HAT were tested. Pharmacokinetic outcomes were recovered using traditional non-compartmental methods using Phoenix WinNonlin (version 6.2; Pharsight, Mountain View, CA, USA).

[2] = CSF DB829 concentrations in infected vervet monkeys; settings: for concentration at 1 h: 5 mg/kg/day, read-out: geometric mean CSF DB829 concentration
Text: Parasitaemia post-infection was monitored daily, using ear-prick capillary blood, through the completion of DB868 and DB829 treatment. […] At 300 days post-LDD, monkeys were considered cured if they remained normal clinically and parasite-free in the blood and CSF. Pharmacokinetic outcomes were monitored for a minimum of 60 days post-LDD as described previously. […] Monkeys that relapsed, characterized by trypanosome recrudescence in the blood or CSF, were rescue-treated with melarsoprol.
as §2

[3] = Tolerability of dose regimens in infected vervet monkeys; settings: all IM DB829 and oral DB868 dose regimens
Text: as §1, with “Monkeys that relapsed, characterized by trypanosome recrudescence in the blood or CSF, were rescue-treated with melarsoprol. Melarsoprol (Mel B), supplied by the World Health Organization as a 3.6% (w/v) solution in propylene glycol, was administered intravenously at 3.6 mg/kg/day for 4 consecutive days.” left out

N=C(N)c1ccc(-c2ccc(-c3ccc(C(=N)N)cn3)o2)nc1 [DB829, 2,5-bis(5-amidino-2-pyridyl)furan]
half-life ([1]; monkey, in vivo, im, 2.5 mg/kg, after 5th IM dose, Group 3 = 2.5 mg/kg × 5 consecutive days, read-out: t½ (terminal half-life) (converted)): 33 days
Cmax ([1]; monkey, in vivo, im, 2.5 mg/kg, plasma DB829 after 5th IM dose, Group 3 = 2.5 mg/kg × 5 consecutive days, read-out: Cmax): 4200 nM
Tmax ([1]; monkey, in vivo, im, 2.5 mg/kg, plasma DB829 after 5th IM dose, Group 3 = 2.5 mg/kg × 5 consecutive days, read-out: Tmax (converted)): 0.04 days
CL/F ([1]; monkey, in vivo, im, 5 mg/kg, after 5th IM dose, Group 1 = 5 mg/kg × 5 consecutive days, read-out: Cl/F (apparent clearance) (converted)): 0.59 mL/min/kg
half-life ([1]; monkey, in vivo, im, 5 mg/kg, after 5th IM dose, Group 1 = 5 mg/kg × 5 consecutive days, read-out: t½ (terminal half-life) (converted)): 34 days
half-life ([1]; monkey, in vivo, im, 5 mg/kg, after 5th IM dose, Group 2 = 5 mg/kg × 5 alternating days, read-out: t½ (terminal half-life) (converted)): 130 days
Cmax ([1]; monkey, in vivo, im, 5 mg/kg, plasma DB829 after 5th IM dose, Group 1 = 5 mg/kg × 5 consecutive days, read-out: Cmax): 12000 nM
Tmax ([1]; monkey, in vivo, im, 5 mg/kg, plasma DB829 after 5th IM dose, Group 1 = 5 mg/kg × 5 consecutive days, read-out: Tmax (converted)): 0.04 days
Cmax ([1]; monkey, in vivo, im, 5 mg/kg, plasma DB829 after 5th IM dose, Group 2 = 5 mg/kg × 5 alternating days, read-out: Cmax): 16000 nM
Tmax ([1]; monkey, in vivo, im, 5 mg/kg, plasma DB829 after 5th IM dose, Group 2 = 5 mg/kg × 5 alternating days, read-out: Tmax (converted)): 0.04 days
half-life ([1]; monkey, in vivo, im, IM DB829 consecutive-day dosing regimens, read-out: geometric mean (range) terminal half-life (t½) (converted)): 38 days
Cmax ([1]; monkey, in vivo, po, 3 mg/kg/day, after oral DB868 3 mg/kg/day, read-out: Geometric mean Cmax (range) of DB829): 85 nM
Cmax ([1]; monkey, in vivo, po, 3 mg/kg/day, plasma DB829 after the 10th oral dose of DB868, 3 mg/kg × 10 days, read-out: Cmax): 60 nM
Cmax ([1]; monkey, in vivo, po, 10 mg/kg/day, after oral DB868 10 mg/kg/day, read-out: Geometric mean Cmax (range) of DB829): 270 nM
Cmax ([1]; monkey, in vivo, po, 10 mg/kg/day, plasma DB829 after the 10th oral dose of DB868, 10 mg/kg × 10 days, read-out: Cmax): 410 nM
half-life ([1]; monkey, in vivo, po, 10 mg/kg/day, plasma DB829 after the 10th oral dose of DB868, 10 mg/kg × 10 days, read-out: t½ (converted)): 120 days
Cmax ([1]; monkey, in vivo, po, 20 mg/kg/day, after oral DB868 20 mg/kg/day, read-out: Geometric mean Cmax (range) of DB829): 530 nM
Cmax ([1]; monkey, in vivo, po, 20 mg/kg/day, plasma DB829 after the 10th oral dose of DB868, 20 mg/kg × 10 days, read-out: Cmax): 460 nM
Tmax ([1]; monkey, in vivo, po, after oral DB868, three treatment groups, read-out: Median plasma Tmax for DB829 (converted)): 0.33 days
Tmax ([1]; monkey, in vivo, po, after oral DB868, three treatment groups, read-out: range of plasma Tmax for DB829): 0.04 to 2 days
half-life ([1]; monkey, in vivo, po, given IM or orally as DB868, range over monkeys, read-out: half-life for DB829): 33 to 180 days
Cmax ([1]; plasma DB829 after 5th IM dose, Group 1 = 5 mg/kg × 5 consecutive days, 5 mg/kg, read-out: Cmax): 15000 nM
Cmax ([1]; plasma DB829 after 5th IM dose, Group 2 = 5 mg/kg × 5 alternating days, 5 mg/kg, read-out: Cmax): 8900 nM
Cmax ([1]; plasma DB829 after 5th IM dose, Group 3 = 2.5 mg/kg × 5 consecutive days, 2.5 mg/kg, read-out: Cmax): 5900 nM
Tmax ([1]; plasma DB829 after the 10th oral dose of DB868, 3 mg/kg × 10 days): 0.33 days
AUC0–63 ([1]; plasma DB829 after the 10th oral dose of DB868, 3 mg/kg × 10 days, 0 to 63 days): 1800 nmol·days/L
Cmax ([1]; plasma DB829 after the 10th oral dose of DB868, 3 mg/kg × 10 days, read-out: Cmax): 110 nM
Cmax ([1]; plasma DB829 after the 10th oral dose of DB868, 10 mg/kg × 10 days, read-out: Cmax): 340 nM
Cmax ([1]; plasma DB829 after the 10th oral dose of DB868, 20 mg/kg × 10 days, read-out: Cmax): 630 nM and 500 nM
CSF DB829 concentration ([2]; IM 2.5 mg/kg/day consecutive-day dose group, limit of quantification 5 nmol/L): < 5 nmol/L
geometric mean CSF DB829 concentration ([2]; IM 5 mg/kg/day alternate-day dose group, 1 h post-LDD): ~7.3 nmol/L
CSF DB829 concentration ([2]; IM 5 mg/kg/day consecutive-day dose group, by 28 days post-LDD): below the limit of quantification
time DB829 CSF concentrations maintained above 5 nmol/L ([2]; IM 5 mg/kg/day regimens): 2–28 days post-LDD
concentration at 1 h ([2]; monkey, CSF, intramuscular, IM 5 mg/kg/day alternate-day dose group, 1 h post-LDD): 7.3 nM
concentration at 1 h ([2]; monkey, CSF, intramuscular, IM 5 mg/kg/day consecutive-day dose group, 1 h post-LDD): 14 nM
Kp at 1 h ([2]; monkey, CSF, intramuscular, IM 5 mg/kg/day, either regimen, 1 h post-LDD, read-out: CSF concentration as share of total (bound + unbound) plasma concentration): ~0.001
CSF DB829 concentration ([2]; monkeys treated with oral DB868): not quantifiable
tolerability of dose regimens [3]: well tolerated
